Earlier results as cited in patent US20100152480A1 (priority 2008, published 2010).

Assays:
[1] = test system: gram negative bacteria (Alcaligenes faecalis, Bordetella bronchiseptica, Citrobacter freundii, Citrobacter intermedium, Enterobacter aerogenes, Escherichia …); conditions: listed gram negative species; known from prior art
[2] = test system: gram positive bacteria (Arthrobacter oxydans, Bacillus cereus var mycoide, Bacillus subtilis, Bacillus megaterium, Clostridium perfringens, Listeria …); conditions: listed gram positive species; known from prior art
[3] = 20° C.
[4] = test system: moulds and yeast (Aspergillus niger, Aureobasidium pullulans, Cladosporium cladosporioides, Gliocadium virens, Chaetonium globosum, Penicillium chrysogenum …); conditions: listed moulds and yeasts; known from prior art

Substance: ethyl-Na-dodecanoyl-Larginate HCl [Ethyl lauroyl arginate]
- effectiveness against gram negative bacteria [1]: effective
- effectiveness against gram positive bacteria [2]: effective
- solubility in water [3]: greater than 247 g/kg
- effectiveness against moulds and yeast [4]: effective
